Assay results published in ChEMBL document CHEMBL1137036, “Synthesis and evaluation of 2-amino-8-alkoxy quinolines as MCHr1 antagonists. Part 3” (Bioorg Med Chem Lett, 2004).

What was measured:
[1] = target: T1, Melanin-concentrating hormone receptor 1 (Homo sapiens, UniProt Q99705); test: Concentration required to inhibit 50% of melanin-concentrating hormone induced [Ca2+] flux in IMR-32 cells measured by using a fluorometric imaging plate reader; format: functional, cell-based
[2] = Area under curve in brain was determined at the peroral dose of 10 mg/kg in diet-induced obese (DIO) mice; unit may be ng.h/mL or ng.h/g; format: ADME, organism-based; set-up: dose 10 mg/kg, route oral; conditions: mouse, in vivo, po
[3] = Half life in plasma was determined at the peroral dose of 10 mg/kg in diet-induced obese (DIO) mice; format: ADME, organism-based; set-up: dose 10 mg/kg, route oral; conditions: mouse, po
[4] = Maximum concentration in plasma was determined at the peroral dose of 10 mg/kg in diet-induced obese (DIO) mice; unit may be ng/mL or ng/g; format: ADME, organism-based; set-up: dose 10 mg/kg, route oral; conditions: mouse, po
[5] = target: T1, Melanin-concentrating hormone receptor 1; test: Concentration required to inhibit binding of [125I]MCH radioligand to human Melanin-concentrating hormone receptor 1 in IMR-32 I3.4.2 cell membranes
[6] = Maximum concentration in brain was determined at the peroral dose of 10 mg/kg in diet-induced obese (DIO) mice; unit may be ng/mL or ng/g; format: ADME, organism-based; set-up: dose 10 mg/kg, route oral; conditions: mouse, po
[7] = Area under curve in plasma was determined at the peroral dose of 10 mg/kg in diet-induced obese (DIO) mice; unit may be ng.h/mL or ng.h/g; format: ADME, organism-based; set-up: dose 10 mg/kg, route oral; conditions: mouse, in vivo, po
[8] = Half life in brain was determined at the peroral dose of 10 mg/kg in diet-induced obese (DIO) mice; format: ADME, organism-based; set-up: dose 10 mg/kg, route oral; conditions: mouse, po
[9] = Brain/plasma ratio was determined in diet-induced obese (DIO) mice; format: ADME, cell-free; conditions: mouse, brain and plasma
[10] = Area under curve in brain was determined in diet-induced obese (DIO) mice; format: ADME, tissue-based; conditions: mouse, in vivo

T1 sequence (Q99705 whole entry): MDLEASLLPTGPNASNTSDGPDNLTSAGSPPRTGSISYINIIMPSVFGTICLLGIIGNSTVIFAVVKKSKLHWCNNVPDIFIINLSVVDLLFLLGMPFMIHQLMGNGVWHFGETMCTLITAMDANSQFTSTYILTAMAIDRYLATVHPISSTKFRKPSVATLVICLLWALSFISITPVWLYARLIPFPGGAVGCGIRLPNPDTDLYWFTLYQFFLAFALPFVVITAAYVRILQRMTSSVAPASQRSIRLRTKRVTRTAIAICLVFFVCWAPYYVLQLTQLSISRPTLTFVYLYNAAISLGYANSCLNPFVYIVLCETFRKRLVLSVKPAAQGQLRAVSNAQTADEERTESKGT

Row | Compound | IC50 [1] [nM] | IC50 [5] [nM] | also measured
1 | Nc1ccc2cccc(OC3CCN(c4ccc5c(c4)OC(F)(F)O5)C3)c2n1 (stereo not drawn) | 22.4 | 0.9 | AUC [2]: 17700 ng·h/mL; half-life [3]: 4.6 h; Cmax [4]: 331 ng/mL; Cmax [6]: 2860 ng/mL; AUC [7]: 801 ng·h/mL; half-life [8]: 5.1 h
2 | Nc1ccc2cccc(OCCCNC(=O)c3cccc(Cl)c3)c2n1 | 7 | – | Kp [9]: 0.03; AUC [10]: 11 ng·h/mL
3 | CC(C)Cc1ccc(N2CCC(Oc3cccc4ccc(NCC5CC5)nc34)C2)cc1 (stereo not drawn) | > 10000 | 149 | –
4 | Nc1ccc2cccc(O[C@H]3CCN(C(=O)c4ccc5c(c4)OCO5)C3)c2n1 | 9140 | 730 | –
5 | CC(C)(C)c1ccc(S(=O)(=O)N2CC[C@H](Oc3cccc4ccc(N)nc34)C2)cc1 | 1140 | 210 | –
6 | CN(C)c1ccc2cccc(OC3CCN(c4ccc5c(c4)OCO5)C3)c2n1 (stereo not drawn) | > 10000 | > 2000 | –
7 | CC(C)Cc1ccc(N2CCC(Oc3cccc4ccc(NCc5ccc(-c6cccc(C(F)(F)F)c6)o5)nc34)C2)cc1 (stereo not drawn) | 41 | 41 | –
8 | Nc1ccc2cccc(OCCCNCc3ccc(Cl)c(C(F)(F)F)c3)c2n1 | – | – | Kp [9]: 0.96; AUC [10]: 9520 ng·h/mL
9 | CC(Cc1ccc2c(c1)OCO2)N1CCC(Oc2cccc3ccc(N)nc23)C1 (stereo not drawn) | 79.2 | 2.2 | –
10 | CNc1ccc2cccc(OC3CCN(c4ccc5c(c4)OCCO5)C3)c2n1 (stereo not drawn) | 244 | 25.6 | –

Now from value to molecule, other results behind:

Row | IC50 [1] [nM] | IC50 [5] [nM] | Compound | also measured
11 | 1260 | 90 | CC(=O)Nc1ccc(CN2CC[C@H](Oc3cccc4ccc(N)nc34)C2)cc1 | –
12 | 224 | 20.5 | CCC(c1ccccc1)N1CCC(Oc2cccc3ccc(N)nc23)C1 (stereo not drawn) | –
13 | 1600 | 70 | Nc1ccc2cccc(O[C@@H]3CCN(Cc4ccc5c(c4)OCO5)C3)c2n1 | –
14 | 53.3 | 1.2 | CC(C)Cc1ccc(N2CCC(Oc3cccc4ccc(N)nc34)C2)cc1 (stereo not drawn) | –
15 | 30 | 70 | Nc1ccc2cccc(O[C@H]3CCN(Cc4ccc5c(c4)OCO5)C3)c2n1 | AUC [2]: 1710 ng·h/mL; half-life [3]: 6.5 h; Cmax [4]: 543 ng/mL; Cmax [6]: 183 ng/mL; AUC [7]: 1350 ng·h/mL; half-life [8]: 8.3 h
16 | 1690 | 120 | Nc1ccc2cccc(O[C@H]3CCN(Cc4ccccc4)C3)c2n1 | –
17 | 30 | 1 | CC(C)(C)c1ccc(CN2CC[C@H](Oc3cccc4ccc(N)nc34)C2)cc1 | –
18 | 51 | 2.7 | Nc1ccc2cccc(OC3CCN(c4ccc5c(c4)OCCO5)C3)c2n1 (stereo not drawn) | –
19 | 531 | 38.6 | Nc1ccc2cccc(O[C@@H]3CCN(c4ccc5c(c4)OC(F)(F)O5)C3)c2n1 | –
20 | > 10000 | 580 | Nc1ccc2cccc(O[C@@H]3CCN(Cc4ccccc4)C3)c2n1 | –
